What was measured:
[1] = target: T1, P2X3 (Mus musculus, UniProt Q3UR32); assay: ATP-induced [Ca++]i transients in DRG neurons, Fura-2 fluorescence imaging, dish-in-dish culture; assay type: cell-based
T1 construct: endogenous in cells; host or cells: primary lumbosacral DRG neurons of C57BL/6J mice
T1 sequence (Q3UR32 1-397): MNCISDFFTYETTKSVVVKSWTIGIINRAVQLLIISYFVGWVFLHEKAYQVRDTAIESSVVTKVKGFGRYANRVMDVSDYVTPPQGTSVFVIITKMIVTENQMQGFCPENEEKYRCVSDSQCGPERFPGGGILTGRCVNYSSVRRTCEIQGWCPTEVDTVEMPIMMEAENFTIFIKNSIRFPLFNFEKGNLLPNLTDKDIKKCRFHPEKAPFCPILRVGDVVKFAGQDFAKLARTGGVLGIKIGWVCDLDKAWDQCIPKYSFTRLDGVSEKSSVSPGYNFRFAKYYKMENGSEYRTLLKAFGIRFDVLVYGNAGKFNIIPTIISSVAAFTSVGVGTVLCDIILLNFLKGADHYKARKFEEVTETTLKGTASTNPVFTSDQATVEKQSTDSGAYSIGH
Experimental: (§1) DRG tissues were obtained from C57BL/6J (Jackson Laboratory; 20 g). Upon arrival, mice were housed in microisolator caging and maintained on 12 hour light/dark cycle in a temperature controlled environment. The mice had access to food and water ad libitum for two weeks. All studies were carried out in accordance with the guidelines of the Institutional Animal Care and Use Committee (IACUC) of Charles R. Drew University of Medicine and Science and the NIH Guide for the Care and Use of Laboratory Animals.
(§2) Lumbosacral adult DRG cells (level L1-S-1) were collected under sterile technique and placed in ice cold medium Dulbecco's Modified Eagle's Medium (DMEM; Sigma-Aldrich, St. Louis, Mo.). Adhering fat and connective tissue were removed and each isolated DRG tissue was minced with sterile scissors and placed immediately in a medium consisting of 5 ml of DMDM containing 0.5 mg/ml of trypsin (Sigma Type III), 1 mg/ml of collagenase (Sigma Type IA) and 0.1 mg/ml of DNAase (Sigma Type III) and all kept at 37 degrees Centigrade for 30 minutes with agitation.
(§3) After dissociation of the ganglia soybean trypsin inhibitor (Sigma Type III) was used to terminate cell dissociation. Cell suspensions were centrifuged for one minute at 1000 rpm and the cell pellets were resuspended in DMEM supplemented with 5% fetal bovine serum (FBS), 2 mM glutamine-penicillin-streptomycin mixture, 1 ug/ml DNAase, and 5 ng/ml of NGF (Sigma).
(§4) Cells were then placed on Matrigel® (Invitrogen, Carlsbad, Calif.) coated 15-mm coverslips (Collaborative Research Co., Bedford Pa.) and kept at 37 degrees Centigrade in a 5% CO2 incubator for 24 hours, then given fresh media and maintained in primary culture until used for experimental procedures.
(§5) Adjacent culture of SH-SY5Y cells with dorsal root ganglion cells occurred as follows. A dish-in-dish system involving a physically separate outer “surround” cell culture well and a separate inner “center” cell culture well was constructed, both wells capable of being managed independently (FIG. 1).
(§6) Mouse DRG neuron cells were seeded in the center well which medium consisted of 5% FBS, 2 mM glutamine-penicillin-streptomycin mixture, 1 ug/mL DNAase, and 5 ng/mL NGF for 24 hours at 5% CO2 and 37 degrees Centigrade. Thus, the two cell populations were co-dish-in-dish cultured, separated but adjacent to each other for 12 hours prior to assessing [Ca++]i response to chemical stimulation. […]
Culture of normal control DRG cells juxtaposed with media containing no cells took place as follows. To establish additional control conditions for assessing the effect of non-diffusible cell-to-cell communication two additional controls were performed: 1) dish-in-dish culture of normal control DRG cells in the center culture well with DRG cell media only in the surround culture well; and 2) dish-in-dish culture of normal control DRG cells in the center culture well with human SH-SY5Y neuroblastoma cell media only in the surround culture well.
(§7) [Ca++]i fluorescence imaging was carried out. DRG neurons were loaded with fluorescent dye […] Fura-2 AM (Invitrogen, Carlsbad, Calif.) for 45 minutes at 37 degrees Centigrade in HBSS supplemented with 20 mM HEPES, pH 7.4. The cover slips were mounted in an RC-26 recording chamber P-4 (Warner Instruments, Hamden, Conn.) and placed on a stage of an Olympus IX51 inverted microscope (Olympus America, Center Valley, Pa.). Observations were made at room temperature (20-23 degrees Centigrade) with a 20× UApo/340 objective. Neurons were bathed and perfused with HBSS buffer using gravity at a rate of 1-2 ml/min.
Fluorescence intensity at 505 nm with excitation at 334 nm and 380 nm were captured as digital images (sampling rates from 0.1 to 2 seconds). Regions of interest were identified within the soma from which quantitative measurements were made by re-analysis of stored image sequences using Slidebook® Digital Microscopy software. […]

[2] = target: T2, TRPV1 (Mus musculus, UniProt Q704Y3); assay: capsaicin-induced [Ca++]i transients in DRG neurons, Fura-2 fluorescence imaging, dish-in-dish culture; assay type: cell-based
T2 construct: endogenous in cells; host or cells: primary lumbosacral DRG neurons of C57BL/6J mice
Experimental: as §1, §2, §3, §4, §5, §6, §7
Fluorescence intensity at 505 nm with excitation at 334 nm and 380 nm were captured as digital images (sampling rates from 0.1 to 2 seconds). Regions of interest were identified within the soma from which quantitative measurements were made by re-analysis of stored image sequences using Slidebook® Digital Microscopy software. [Ca++]i was determined by ratiometric method of Fura-2 fluorescence from calibration of a series of buffered Ca++ standards. E2 was applied acutely for five minutes onto the experimental chamber.
Repeated application of drugs was achieved by superfusion into individual neurons in a rapid mixing chamber for specific intervals (100-500 ms). […]

[3] = tested on: DRG neurons; assay: basal [Ca++]i in DRG neurons, Fura-2 fluorescence imaging; assay type: cell-based, mouse; settings: E2 100 nM by itself
Experimental: as §1
Lumbosacral adult DRG cells (level L1-S-1) were collected under sterile technique and placed in ice cold medium Dulbecco's Modified Eagle's Medium (DMEM; Sigma-Aldrich, St. Louis, Mo.). […]
[Ca++]i fluorescence imaging was carried out. […]
Fluorescence intensity at 505 nm with excitation at 334 nm and 380 nm were captured as digital images (sampling rates from 0.1 to 2 seconds). Regions of interest were identified within the soma from which quantitative measurements were made by re-analysis of stored image sequences using Slidebook® Digital Microscopy software. [Ca++]i was determined by ratiometric method of Fura-2 fluorescence from calibration of a series of buffered Ca++ standards. […]
All of the data were expressed as the mean±SEM. […]

[4] = neuroblastoma SH-SY5Y cells in the surround well

T2 sequence (Q704Y3 whole entry): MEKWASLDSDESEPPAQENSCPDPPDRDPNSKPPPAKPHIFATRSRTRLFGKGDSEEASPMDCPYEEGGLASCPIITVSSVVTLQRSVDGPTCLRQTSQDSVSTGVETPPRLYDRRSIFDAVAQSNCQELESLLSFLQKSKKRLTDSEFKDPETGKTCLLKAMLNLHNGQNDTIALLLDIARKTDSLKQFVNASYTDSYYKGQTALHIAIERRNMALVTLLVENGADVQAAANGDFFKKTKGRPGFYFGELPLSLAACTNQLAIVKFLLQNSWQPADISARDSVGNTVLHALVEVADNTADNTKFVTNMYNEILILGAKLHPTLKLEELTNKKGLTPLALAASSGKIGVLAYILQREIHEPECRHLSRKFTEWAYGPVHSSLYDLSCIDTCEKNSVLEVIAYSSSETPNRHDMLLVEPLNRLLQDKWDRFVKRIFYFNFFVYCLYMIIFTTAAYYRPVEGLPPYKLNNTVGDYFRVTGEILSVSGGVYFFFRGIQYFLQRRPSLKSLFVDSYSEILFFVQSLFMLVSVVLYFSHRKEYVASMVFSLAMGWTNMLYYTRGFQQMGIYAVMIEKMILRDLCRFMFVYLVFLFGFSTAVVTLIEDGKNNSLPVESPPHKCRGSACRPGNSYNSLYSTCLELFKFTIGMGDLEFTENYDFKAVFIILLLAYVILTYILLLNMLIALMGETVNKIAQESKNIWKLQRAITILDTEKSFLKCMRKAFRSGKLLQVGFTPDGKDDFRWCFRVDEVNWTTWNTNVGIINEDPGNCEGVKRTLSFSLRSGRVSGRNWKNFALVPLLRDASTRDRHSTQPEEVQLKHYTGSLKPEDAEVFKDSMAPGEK

`Nc1ncnc2c1ncn2[C@@H]1O[C@H](COP(=O)(O)OP(=O)(O)OP(=O)(O)O)[C@@H](O)[C@H]1O` [ATP] was tested, and the “[Ca++]i spikes on ATP application” value ([1]; 10 second application of ATP 10 uM, DRG neurons in center and surround wells) was “equal [Ca++]i spikes”, the “ATP-induced [Ca++]i responses, initial stimulation” value ([1]; ATP 10 uM, DRG neurons exposed to KCL (50 mM) in the surround well, p<0.001) was “four fold higher” and the “ATP-induced [Ca++]i response with media only in surround well” value ([1]; ATP 10 uM, SH-SY5Y media without cells in the surround well) was “as occurred under control conditions”. For the same compound, the “ATP-induced [Ca++]i response” value ([1]; ATP 10 uM, neuroblastoma SH-SY5Y cells in the surround well, n=4) was 193 ± 40.6 nM, the “ATP-induced [Ca++]i responses, subsequent stimulation” value ([1]; ATP 10 uM, ten minute intervals, DRG neurons exposed to KCL (50 mM) in the surround well, p<0.001) was “significantly reduced” and the “ATP-induced [Ca++]i transient” value ([1]; initial ATP (10 uM) response before E2, DRG cells in surround well (control), mean±SEM, n=5) was 425.86 ± 49.5 nM. For the same compound, the “ATP-stimulated [Ca++]i with KCL media only in surround well” value ([1]; media with 50 mM KCL without cells in the surround well) was “as was observed in the control”.
With `O=C(O)CN(CC(=O)O)c1ccccc1OCCOc1ccccc1N(CC(=O)O)CC(=O)O` [BAPTA] the “effect on ATP-induced [Ca++]i spikes” value ([1]; BAPTA 10 mM, Ca++-free media) was “eliminated”.
With `C[C@]12CC[C@@H]3c4ccc(O)cc4CC[C@H]3[C@@H]1CC[C@@H]2O` [E2, 17 β-estradiol] the “ATP-induced [Ca++]i transient after E2” value ([1]; ATP 10 uM after five-minute incubation with E2 (100 nM), mean±SEM, n=5, p<0.05) was 171.17 ± 48.9 nM, the “reversibility of the effect on ATP-induced [Ca++]i” value ([1]; E2 100 nM) was “reversible” and the “effect on ATP-induced [Ca++]i transients” value ([1]; E2 100 nM, control conditions) was “attenuated”. The “effect of E2 on ATP-induced P2X3-mediated [Ca++]i” value [1, 4] was “abolished”, the “peak of capsaicin-induced [Ca++]i transients with E2” value ([2]; capsaicin 100 nM, E2 100 nM applied first, mean±SEM, n=5, p<0.05) was 175.01 ± 34.8 nM and the “effect on capsaicin-induced TRPV1-mediated [Ca++]i flux” value [2, 4] was “attenuated”. For the same compound, the “effect on basal [Ca++]i” value [3] was “no effect”.
In the case of `C[C@]12CC[C@@H]3c4ccc(O)cc4C[C@@H](CCCCCCCCC[S+]([O-])CCCC(F)(F)C(F)(F)F)[C@H]3[C@@H]1CC[C@@H]2O` (some centres unmarked) [ICI 182,780], the “effect on the 17 β-estradiol inhibitory effect on ATP-induced [Ca++]i transients” value ([1]; ICI 182,780 1 nM) is reported as “blocked”.
For `Cc1nc(N=Nc2ccc(S(=O)(=O)O)cc2S(=O)(=O)O)c(COP(=O)(O)O)c(C=O)c1O` [PPADS], the “effect on ATP-induced [Ca++]i transients” value ([1]; pretreatment with PPADS 5 uM, ATP 10 uM) was “blocked”.
With `COc1cc(CNC(=O)CCCC/C=C/C(C)C)ccc1O` [capsaicin] the “reversibility of the effect of capsaicin” value [2] was “not reversible”, the “peak of capsaicin-induced [Ca++]i transients” value ([2]; capsaicin 100 nM without E2, control conditions, mean±SEM, n=5) was 399.21 ± 44.5 nM and the “capsaicin-induced [Ca++]i response with media only in surround well” value ([2]; capsaicin 100 nM, SH-SY5Y media without cells in the surround well) was “as occurred under control conditions”. The “capsaicin-induced [Ca++]i response” value ([2]; capsaicin 100 nM, neuroblastoma SH-SY5Y cells in the surround well, n=4) was 145.90 ± 28.84 nM and the “[Ca++]i spikes on capsaicin application” value ([2]; capsaicin 3 second 100 nM by fast superfusion) was “produced [Ca++]i spikes”.
With `Oc1cc2c(cc1O)CN(C(=S)NCCc1ccc(Cl)cc1)CCC2` [capsazepine] the “effect on capsaicin-induced [Ca++]i spikes” value ([2]; capsazepine 100 nM, capsaicin 100 nM 3 second) was “almost completely blocked”.

— patent US9834750B2, “Cell-to-cell communication without exchange of mediating diffusible factors or using any physical contact between cells” (priority 2013, dated 2017)
